SMILES strings stand for the structures. Active and inactive are the calls of the source. A value given as a limit tells only on which side of the number the result lay.

For orientation: IC50 means the concentration that gives 50% inhibition. Usually AC50 stands for the concentration at which the activity in the assay is half-maximal. One may read the EC50 as the concentration at which the effect is half-maximal.

The target in test [1] is Nucleotide-binding oligomerization domain-containing protein 1 (Homo sapiens, UniProt Q9Y239). In words: SAR analysis of compounds that inhibit NOD1 - Set 3. [Related pubchem assays (depositor defined):AID1566, AID1575, AID1578, AID1849, AID1852, AID2333, AID2335, AID2466]. In kind it is functional.
In another test the target is Tumor necrosis factor (Homo sapiens, UniProt P01375). In words: TNFa-triggered NF-kB activation inhibitors, SAR follow-up, cell-based, set 3 (AID 2801). In kind it is functional.
A further test relates to HEK293. The test is described as follows: SAR analysis of compounds that are cytotoxic to HEK293 - Set 3. [Related pubchem assays (depositor defined):AID1575, AID1578, AID1848, AID1849, AID2001, AID2333, AID2334, AID2335, AID2337, AID2469]. To be noted: Homo sapiens. Format: functional, cell-based.
Test [2] concerns the target Nucleotide-binding oligomerization domain-containing protein 2 (Homo sapiens, UniProt Q9HC29). In words: NOD2 signaling inhibitors, analog potency, SAR follow-up, cell-based, set 3 (AID 2799). Format: functional.
Test [3] concerns the target Lysine-specific demethylase 4C (Homo sapiens, UniProt Q9H3R0). The test is described as follows: GASC-1 (JMJD2C) histone demethylase inhibitors, dose response, biochemical, DELFIA europium, cherry-picked samples (AID 488835). In kind it is functional.
Test [4] has as its target G-protein coupled receptor 35 (Homo sapiens, UniProt Q9HC97). The test is described as follows: SAR Analysis for the identification of Selective Antagonists of ERK1/2 Activity in GPR35-Overexpressing U2OS Cells. [Related pubchem assays: 2079, 2058 ]. In kind it is functional, cell-based.
Test [5] deals with G-protein coupled receptor 55 (Homo sapiens, UniProt Q9Y2T6). In words: GPR55 antagonists, SAR follow-up, counter-screen for GPR35 antagonist project, imaging, image-based (AID 2397). Format: functional. In general terms: Counterscreens check selectivity or assay interference.
The target of test [6] is T1, Delta-type opioid receptor (Homo sapiens, UniProt P41143). In words: HTS Image-Based Screen for Antagonists of the DOR Receptor. [Related pubchem assays (depositor defined):AID1777, AID1785, AID1786, AID2133]. Format: functional.
In test [7] the target is T2, Mu-type opioid receptor (Homo sapiens, UniProt P35372). In words: HTS Image-Based Screen for Agonists of the MOR Receptor. [Related pubchem assays (depositor defined):AID1777, AID1785, AID1786, AID2133]. In kind it is functional.
The target of test [8] is T1, Delta-type opioid receptor. In words: HTS Image-Based Screen for Agonists of the DOR Receptor. [Related pubchem assays (depositor defined):AID1777, AID1786, AID2133]. In kind it is functional.
The next test deals with Beta-galactosidase (Escherichia coli, UniProt Q8VNN2). In kind it is functional.
The target of test [9] is T2, Mu-type opioid receptor. In words: MOR agonists by imaging, SAR follow-up, image-based (AID 2352). Format: functional.
In test [10] the target is T2, Mu-type opioid receptor. In words: SAR Analysis of Antagonists of the MOR Receptor using an Image-Based Assay - Set 3. [Related pubchem assays (depositor defined):AID1777, AID1785, AID1786, AID1966, AID2133, AID2136, AID2284, AID2285, AID2420]. Format: functional.
The target in test [11] is T1, Delta-type opioid receptor. In words: DOR agonists, SAR follow-up, image-based (AID 2370). In kind it is functional.
Test [12] addresses T1, Delta-type opioid receptor. The test is described as follows: SAR Analysis of Antagonists of the DOR Receptor using an Image-Based Assay - Set 3. [Related pubchem assays (depositor defined):AID1777, AID1785]. Format: functional.
The target of test [13] is T2, Mu-type opioid receptor. The test is described as follows: MOR antagonists, SAR follow-up, image-based (AID 2420).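 Further: compounds added before stimulation of receptor with agonist DAMGO.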 Format: functional.
In test [14] the target is T1, Delta-type opioid receptor. The test is described as follows: DOR antagonists, SAR follow-up, image-based (AID 2357). In kind it is functional.
In test [15] the target is Beta-adrenergic receptor kinase 1 (Homo sapiens, UniProt P25098). The test is described as follows: GRK2 inhibitors displacing RNA aptamer, dose response, biochemical, flow cytometry beads, FAM-aptamer, powder set 1 (AID 588720). Background: Flow cytometry measures light scatter and fluorescence of single cells or particles in a stream.

T1 sequence (P41143 whole entry): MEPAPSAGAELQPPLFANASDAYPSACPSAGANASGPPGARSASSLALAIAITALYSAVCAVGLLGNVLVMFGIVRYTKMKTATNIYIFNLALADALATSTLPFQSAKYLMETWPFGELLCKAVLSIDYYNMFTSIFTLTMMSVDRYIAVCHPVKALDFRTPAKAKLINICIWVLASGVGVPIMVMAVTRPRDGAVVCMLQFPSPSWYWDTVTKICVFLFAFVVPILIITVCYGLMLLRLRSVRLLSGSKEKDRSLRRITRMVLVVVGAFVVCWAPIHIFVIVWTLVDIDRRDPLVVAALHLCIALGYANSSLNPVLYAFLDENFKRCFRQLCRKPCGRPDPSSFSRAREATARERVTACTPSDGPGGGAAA
T2 sequence (P35372 whole entry): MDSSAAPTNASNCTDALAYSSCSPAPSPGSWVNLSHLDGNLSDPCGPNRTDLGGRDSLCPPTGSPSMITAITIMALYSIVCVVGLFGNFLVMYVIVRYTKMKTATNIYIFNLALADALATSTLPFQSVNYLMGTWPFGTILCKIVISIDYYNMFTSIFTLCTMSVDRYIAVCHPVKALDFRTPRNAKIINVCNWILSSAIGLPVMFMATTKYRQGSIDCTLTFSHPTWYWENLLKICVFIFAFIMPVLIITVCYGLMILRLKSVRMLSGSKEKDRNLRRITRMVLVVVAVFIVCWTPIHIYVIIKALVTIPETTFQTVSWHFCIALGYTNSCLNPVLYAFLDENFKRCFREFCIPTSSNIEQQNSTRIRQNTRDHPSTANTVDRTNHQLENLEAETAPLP
Nucleotide-binding oligomerization domain-containing protein 1, sequence (Q9Y239 whole entry, the tested form may be a part): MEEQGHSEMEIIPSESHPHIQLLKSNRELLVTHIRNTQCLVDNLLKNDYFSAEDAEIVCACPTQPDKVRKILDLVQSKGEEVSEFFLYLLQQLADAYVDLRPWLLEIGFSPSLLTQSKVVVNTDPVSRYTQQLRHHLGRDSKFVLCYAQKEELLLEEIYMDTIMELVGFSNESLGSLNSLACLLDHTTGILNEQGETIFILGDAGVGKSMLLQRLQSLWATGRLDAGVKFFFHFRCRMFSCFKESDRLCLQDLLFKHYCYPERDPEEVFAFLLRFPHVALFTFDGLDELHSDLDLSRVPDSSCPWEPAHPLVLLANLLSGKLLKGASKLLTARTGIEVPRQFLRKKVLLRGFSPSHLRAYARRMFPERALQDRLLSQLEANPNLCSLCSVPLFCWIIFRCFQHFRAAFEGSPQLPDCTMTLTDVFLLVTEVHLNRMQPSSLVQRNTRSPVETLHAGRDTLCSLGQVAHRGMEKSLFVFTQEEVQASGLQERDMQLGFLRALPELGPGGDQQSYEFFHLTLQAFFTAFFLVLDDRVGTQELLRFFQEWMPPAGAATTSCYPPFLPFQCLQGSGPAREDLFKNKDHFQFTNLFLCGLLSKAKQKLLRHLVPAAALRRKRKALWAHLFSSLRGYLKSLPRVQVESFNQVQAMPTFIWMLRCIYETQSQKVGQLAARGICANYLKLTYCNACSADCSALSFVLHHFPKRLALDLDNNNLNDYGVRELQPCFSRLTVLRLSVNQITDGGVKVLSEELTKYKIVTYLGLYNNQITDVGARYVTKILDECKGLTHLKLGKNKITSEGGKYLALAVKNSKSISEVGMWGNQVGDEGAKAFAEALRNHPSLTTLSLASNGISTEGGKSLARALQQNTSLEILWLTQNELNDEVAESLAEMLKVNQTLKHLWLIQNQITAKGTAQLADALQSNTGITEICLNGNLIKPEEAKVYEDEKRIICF
G-protein coupled receptor 35, sequence (Q9HC97 whole entry): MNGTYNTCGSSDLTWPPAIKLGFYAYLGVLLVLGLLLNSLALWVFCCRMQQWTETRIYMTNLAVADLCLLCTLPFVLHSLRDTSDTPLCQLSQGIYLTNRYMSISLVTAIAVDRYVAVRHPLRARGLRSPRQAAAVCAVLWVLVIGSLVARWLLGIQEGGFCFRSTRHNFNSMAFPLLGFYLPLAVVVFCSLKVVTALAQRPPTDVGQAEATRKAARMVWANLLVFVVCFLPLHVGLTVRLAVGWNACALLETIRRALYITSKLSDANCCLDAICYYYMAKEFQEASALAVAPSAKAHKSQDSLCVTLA
Tumor necrosis factor, sequence (P01375 whole entry): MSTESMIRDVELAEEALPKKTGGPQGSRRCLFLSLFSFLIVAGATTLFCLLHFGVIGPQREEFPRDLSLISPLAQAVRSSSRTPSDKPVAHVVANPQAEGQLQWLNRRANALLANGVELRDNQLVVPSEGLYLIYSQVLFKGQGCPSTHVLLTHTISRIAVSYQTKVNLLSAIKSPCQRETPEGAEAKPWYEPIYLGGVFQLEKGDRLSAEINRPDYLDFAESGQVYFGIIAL
G-protein coupled receptor 55, sequence (Q9Y2T6 whole entry): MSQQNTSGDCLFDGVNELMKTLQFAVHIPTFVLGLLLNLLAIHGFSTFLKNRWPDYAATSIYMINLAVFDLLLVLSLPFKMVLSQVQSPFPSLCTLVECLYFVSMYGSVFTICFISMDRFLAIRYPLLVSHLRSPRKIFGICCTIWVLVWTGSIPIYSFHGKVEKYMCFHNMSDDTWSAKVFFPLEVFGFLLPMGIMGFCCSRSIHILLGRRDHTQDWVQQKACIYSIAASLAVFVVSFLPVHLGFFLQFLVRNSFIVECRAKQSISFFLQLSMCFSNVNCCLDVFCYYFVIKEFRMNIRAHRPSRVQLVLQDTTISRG
Beta-galactosidase, sequence (Q8VNN2 whole entry): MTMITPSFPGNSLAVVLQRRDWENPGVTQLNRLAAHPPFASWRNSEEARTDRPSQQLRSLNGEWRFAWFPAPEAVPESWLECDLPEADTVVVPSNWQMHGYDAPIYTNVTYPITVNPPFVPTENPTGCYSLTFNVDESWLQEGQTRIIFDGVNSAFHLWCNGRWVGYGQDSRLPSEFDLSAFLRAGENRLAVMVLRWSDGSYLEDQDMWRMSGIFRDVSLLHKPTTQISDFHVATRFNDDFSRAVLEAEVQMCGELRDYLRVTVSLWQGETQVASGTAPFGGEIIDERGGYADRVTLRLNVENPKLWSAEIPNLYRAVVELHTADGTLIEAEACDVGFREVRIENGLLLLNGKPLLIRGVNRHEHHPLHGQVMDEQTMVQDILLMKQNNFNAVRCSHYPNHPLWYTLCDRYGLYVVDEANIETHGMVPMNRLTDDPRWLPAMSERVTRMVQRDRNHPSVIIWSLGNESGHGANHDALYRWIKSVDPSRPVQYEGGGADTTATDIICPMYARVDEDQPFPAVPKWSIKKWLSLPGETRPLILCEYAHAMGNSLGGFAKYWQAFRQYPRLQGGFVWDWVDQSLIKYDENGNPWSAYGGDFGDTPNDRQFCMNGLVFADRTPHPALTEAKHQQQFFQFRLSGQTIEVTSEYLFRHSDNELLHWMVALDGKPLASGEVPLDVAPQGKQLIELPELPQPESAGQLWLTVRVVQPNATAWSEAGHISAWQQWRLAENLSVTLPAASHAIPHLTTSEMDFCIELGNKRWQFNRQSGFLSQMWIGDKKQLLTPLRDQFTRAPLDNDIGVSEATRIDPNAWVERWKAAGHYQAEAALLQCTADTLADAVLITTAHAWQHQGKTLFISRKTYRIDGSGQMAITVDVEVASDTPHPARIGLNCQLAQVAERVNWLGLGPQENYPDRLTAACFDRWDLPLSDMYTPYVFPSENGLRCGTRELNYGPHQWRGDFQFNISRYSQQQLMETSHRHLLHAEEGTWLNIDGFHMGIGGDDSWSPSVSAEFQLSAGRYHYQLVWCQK
Nucleotide-binding oligomerization domain-containing protein 2, sequence (Q9HC29 whole entry, the tested form may be a part): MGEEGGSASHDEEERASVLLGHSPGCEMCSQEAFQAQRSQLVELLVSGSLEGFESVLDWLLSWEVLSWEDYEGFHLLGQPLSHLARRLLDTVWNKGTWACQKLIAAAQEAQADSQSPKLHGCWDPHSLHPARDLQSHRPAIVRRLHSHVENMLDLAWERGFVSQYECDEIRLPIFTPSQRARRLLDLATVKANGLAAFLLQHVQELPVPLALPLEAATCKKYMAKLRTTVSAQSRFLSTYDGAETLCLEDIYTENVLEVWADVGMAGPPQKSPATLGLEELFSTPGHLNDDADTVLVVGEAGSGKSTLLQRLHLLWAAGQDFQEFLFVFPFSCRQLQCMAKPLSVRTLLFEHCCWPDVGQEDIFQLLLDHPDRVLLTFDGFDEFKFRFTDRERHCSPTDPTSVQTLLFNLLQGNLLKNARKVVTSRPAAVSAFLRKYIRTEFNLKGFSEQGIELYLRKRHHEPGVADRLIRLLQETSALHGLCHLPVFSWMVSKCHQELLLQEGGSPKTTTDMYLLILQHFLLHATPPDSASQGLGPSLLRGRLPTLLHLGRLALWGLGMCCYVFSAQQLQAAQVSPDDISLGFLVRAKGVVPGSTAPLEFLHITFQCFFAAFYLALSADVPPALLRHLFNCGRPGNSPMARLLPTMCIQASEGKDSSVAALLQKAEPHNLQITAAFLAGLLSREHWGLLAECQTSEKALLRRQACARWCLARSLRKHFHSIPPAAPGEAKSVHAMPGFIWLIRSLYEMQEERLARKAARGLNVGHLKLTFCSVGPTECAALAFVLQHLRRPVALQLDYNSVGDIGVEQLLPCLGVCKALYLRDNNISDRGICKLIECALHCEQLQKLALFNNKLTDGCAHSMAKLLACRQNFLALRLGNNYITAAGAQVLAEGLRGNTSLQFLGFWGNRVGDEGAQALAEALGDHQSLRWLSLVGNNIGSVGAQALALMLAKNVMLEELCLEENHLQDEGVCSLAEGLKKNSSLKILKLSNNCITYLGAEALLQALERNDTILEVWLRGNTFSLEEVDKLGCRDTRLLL

In the case of `Cc1ccccc1S(=O)(=O)n1c(N)nc2ccccc21`, the IC50 (in test [1]; at Tumor necrosis factor; in the test on HEK293; in test [2]) was > 20 µM (inactive) each time.

As for `Oc1cc(NC2CCCCCC2)nc(O)n1`, the AC50 in test [3] was 8.69 µM (active).

Turning to `Cc1c(C(=O)Nc2ccc3c(c2)OCCO3)sc2ncnc(N3CCC(C)CC3)c12`, the results for the IC50 in test [4] and in test [5] were 20.6 µM (not active) and 21.4 µM (inactive), respectively.

In the case of `Cc1ccc(S(=O)(=O)NCc2ccc(C(=O)NCCN(Cc3ccccc3)C(C)C)cc2)cc1`, the IC50 in test [6] is > 32 µM (inactive); at Mu-type opioid receptor [10], 14 µM (inactive); in [12] it was > 32 µM (inactive); on Mu-type opioid receptor [13], > 32 µM (inactive); in [14] it was > 32 µM (inactive). The EC50 on Mu-type opioid receptor [7] is > 32 µM (inactive); in [8], > 32 µM (inactive); at Beta-galactosidase it was > 31.5 µM (inactive); at Mu-type opioid receptor [9] it was > 32 µM (inactive); in test [11], > 32 µM (inactive).

Consider `Cc1cccc(N2CCN(C(=O)CCS(=O)(=O)c3ccc(Br)cc3)CC2C)c1` (stereo not drawn), for which the EC50 in test [15] was 2 µM (active).

The values are drawn from ChEMBL document CHEMBL1201862, “PubChem BioAssay data set” (2004).
